Results on 13 molecules are retold here after patent US9718821B2, “Pyridopyrimidinone inhibitors of kinases” (AbbVie Inc., priority 2012, dated 2017).

The target in this assay is T1, GST-tagged-Wee1 kinase (Homo sapiens, UniProt P30291).
T1 construct: purchased Carnabio 05-177
T1 sequence (P30291 whole entry): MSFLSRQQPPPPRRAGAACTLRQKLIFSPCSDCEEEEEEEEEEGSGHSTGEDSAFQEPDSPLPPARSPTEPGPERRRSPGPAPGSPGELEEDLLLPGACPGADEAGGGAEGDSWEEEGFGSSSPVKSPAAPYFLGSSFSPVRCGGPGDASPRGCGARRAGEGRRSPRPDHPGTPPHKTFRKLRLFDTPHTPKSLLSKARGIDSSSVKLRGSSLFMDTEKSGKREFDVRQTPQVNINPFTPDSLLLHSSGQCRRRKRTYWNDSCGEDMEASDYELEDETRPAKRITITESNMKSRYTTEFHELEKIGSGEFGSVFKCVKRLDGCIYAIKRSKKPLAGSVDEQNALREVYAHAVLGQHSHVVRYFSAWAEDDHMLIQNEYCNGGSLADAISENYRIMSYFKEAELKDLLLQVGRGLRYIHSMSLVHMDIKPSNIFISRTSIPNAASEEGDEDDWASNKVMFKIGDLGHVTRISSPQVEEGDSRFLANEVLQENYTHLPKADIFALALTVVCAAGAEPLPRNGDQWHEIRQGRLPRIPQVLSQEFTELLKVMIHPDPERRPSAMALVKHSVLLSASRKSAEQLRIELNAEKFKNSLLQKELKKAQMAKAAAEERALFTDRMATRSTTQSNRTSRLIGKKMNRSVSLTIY
Briefly: Wee1 time-resolved fluorescence equilibrium binding assay (displacement of Oregon Green-labeled ATP-competitive kinase probe). To be noted: enzyme binding data; GST-tagged-Wee1 kinase 2 nM, fluorescent probe 300 nM, inhibitor 0.003 to 10 micromolar, 1 hour incubation; read-out: Wee-1 binding (Ki nM). In short, it runs like this: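 Competitive TR-fluorescence equilibrium binding with GST-Wee1; inhibitors displace a rapidly reversible Oregon Green-labelled ATP-competitive probe. Ki values derived from probe displacement.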
Turning to `Cc1cn(-c2c(O)cccc2Cl)c(=O)c2cnc(Nc3ccc4c(c3)CNC4(C)C)nc12` [Example 136, 6-(2-chloro-6-hydroxyphenyl)-2-[(1,1-dimethyl-2,3-dihydro-1H-isoindol-5-yl)amino]-8-methylpyrido[4,3-d]pyrimidin-5(6H)-one], the Ki (as a rule, the equilibrium dissociation constant of an inhibitor or competing ligand from its target) was found to be 0.2 nM.
In the case of `Cc1cccc(C)c1-n1cc(C)c2nc(Nc3ccc4c(c3)CNCC4)ncc2c1=O` [Example 126, 6-(2,6-dimethylphenyl)-8-methyl-2-(1,2,3,4-tetrahydroisoquinolin-7-ylamino)pyrido[4,3-d]pyrimidin-5(6H)-one], the Ki turned out to be 0.4 nM.
Under `Cc1cn(-c2cccc3ccccc23)c(=O)c2cnc(Nc3ccc(N4CCC(N(C)C)CC4)cc3)nc12` [Example 101, 2-({4-[4-(dimethylamino)piperidin-1-yl]phenyl}amino)-8-methyl-6-(naphthalen-1-yl)pyrido[4,3-d]pyrimidin-5(6H)-one] stands 2.8 nM; under `CN(C)C1Cc2ccc(Nc3ncc4c(=O)n(-c5c(Cl)cccc5Cl)cc(CO)c4n3)cc2C1` (stereo not shown) [Example 54, 6-(2,6-dichlorophenyl)-2-{[2-(dimethylamino)-2,3-dihydro-1H-inden-5-yl]amino}-8-(hydroxymethyl)pyrido[4,3-d]pyrimidin-5(6H)-one], 0.4 nM; under `Cc1cn(-c2c(F)cccc2Cl)c(=O)c2cnc(Nc3ccc4c(c3)CNCC4(C)C)nc12` [Example 73, 6-(2-chloro-6-fluorophenyl)-2-[(4,4-dimethyl-1,2,3,4-tetrahydroisoquinolin-7-yl)amino]-8-methylpyrido[4,3-d]pyrimidin-5(6H)-one], 1.5 nM.
Take `Cc1cn(-c2c(Cl)cccc2Cl)c(=O)c2cnc(Nc3ccc(OC4CCN(C)CC4)cc3)nc12` [Example 122, 6-(2,6-dichlorophenyl)-8-methyl-2-({4-[(1-methylpiperidin-4-yl)oxy]phenyl}amino)pyrido[4,3-d]pyrimidin-5(6H)-one]: the Ki came out at 0.4 nM.
Regarding `C=Cc1cn(-c2c(F)cccc2Cl)c(=O)c2cnc(Nc3ccc(C4CCN(C)CC4)cc3)nc12` [Example 61, 6-(2-chloro-6-fluorophenyl)-8-ethenyl-2-{[4-(1-methylpiperidin-4-yl)phenyl]amino}pyrido[4,3-d]pyrimidin-5(6H)-one], the Ki was 0.3 nM.
For `Cc1cn(-c2c(F)cccc2Cl)c(=O)c2cnc(Nc3ccc4c(c3)CC(N(C)C)C4)nc12` (stereo not shown) [Example 68, 6-(2-chloro-6-fluorophenyl)-2-{[2-(dimethylamino)-2,3-dihydro-1H-inden-5-yl]amino}-8-methylpyrido[4,3-d]pyrimidin-5(6H)-one], the Ki was found to be 0.9 nM.
For `Cc1cn(-c2c(Cl)cccc2Cl)c(=O)c2cnc(Nc3ccc(N[C@H]4CC[C@@H](N(C)C)CC4)cc3)nc12` [Example 133, 6-(2,6-dichlorophenyl)-2-[(4-{[cis-4-(dimethylamino)cyclohexyl]amino}phenyl)amino]-8-methylpyrido[4,3-d]pyrimidin-5(6H)-one], the Ki worked out at 0.5 nM.
Take `O=c1c2cnc(Nc3ccc4c(c3)CCNC4)nc2c(CF)cn1-c1c(Cl)cccc1Cl` [Example 110, 6-(2,6-dichlorophenyl)-8-(fluoromethyl)-2-(1,2,3,4-tetrahydroisoquinolin-6-ylamino)pyrido[4,3-d]pyrimidin-5(6H)-one]: the Ki was determined as 0.4 nM.
With `Cc1cn(-c2c(Cl)cccc2Cl)c(=O)c2cnc(Nc3ccc4c(c3)CNCC4)nc12` [Example 80, 6-(2,6-dichlorophenyl)-8-methyl-2-(1,2,3,4-tetrahydroisoquinolin-7-ylamino)pyrido[4,3-d]pyrimidin-5(6H)-one], the Ki is 0.5 nM.
Turning to `CNC(=O)CSc1ccc(Nc2ncc3c(=O)n(-c4c(Cl)cccc4Cl)cc(C)c3n2)cc1` [Example 114, 2-[(4-{[6-(2,6-dichlorophenyl)-8-methyl-5-oxo-5,6-dihydropyrido[4,3-d]pyrimidin-2-yl]amino}phenyl)sulfanyl]-N-methylacetamide], the Ki came out at 0.8 nM.
Under `C=Cc1cn(-c2c(F)cccc2Cl)c(=O)c2cnc(Nc3ccc(N4CCC(N(C)C)CC4)cc3)nc12` [Example 60, 6-(2-chloro-6-fluorophenyl)-2-({4-[4-(dimethylamino)piperidin-1-yl]phenyl}amino)-8-ethenylpyrido[4,3-d]pyrimidin-5(6H)-one] stands 0.5 nM.
